Test systems include ACHN renal; CCRF-CEM leukemia; EKVX NSCLC; HCC-2998 colon; NCI-H226 lung; NCI-H522 lung; OVCAR-3 ovarian; SK-MEL-5 melanoma; SNB-19 CNS.
Common to all, as to assay: NCI anticancer screen, dose series, 48 h

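Test compounds were applied to cells in 96-well plates for 48 hours at 5 doses. At the GI50, growth is halved. TGI denotes the concentration required for complete inhibition of growth.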

For the molecule `CCOC(=O)NC1CC2CCC1(OC)C=C2C` (stereo not drawn), the TGI in the test with ACHN renal, with CCRF-CEM leukemia, in the test with EKVX NSCLC, in the test with HCC-2998 colon, in the test with NCI-H226 lung and in the test on NCI-H522 lung was > 100 µM in each case. Also, the TGI in the test on OVCAR-3 ovarian, with SK-MEL-5 melanoma and in the test with SNB-19 CNS was > 100 µM throughout.

Consider `CCCN1C(=O)CNC(=O)c2[nH]cnc21`, for which the TGI in the test with ACHN renal, in the test on CCRF-CEM leukemia, with EKVX NSCLC, with HCC-2998 colon, in the test on NCI-H226 lung and in the test on NCI-H522 lung was > 100 µM throughout. Further, the TGI with OVCAR-3 ovarian, in the test with SK-MEL-5 melanoma and in the test on SNB-19 CNS was > 100 µM each time.

As to `O=C(O)[C@@H](NS(=O)(=O)c1ccc([N+](=O)[O-])cc1)c1ccccc1`, the TGI in the test on ACHN renal, with CCRF-CEM leukemia, in the test with EKVX NSCLC, in the test with HCC-2998 colon, in the test with NCI-H226 lung and in the test with NCI-H522 lung was > 100 µM in each case. For the same molecule, the TGI in the test on OVCAR-3 ovarian, in the test on SK-MEL-5 melanoma and with SNB-19 CNS was > 100 µM throughout.

For `C=C[C@H]1C=Cc2c(OC)cccc2[C@@H]1COP1(=S)NC(C)C(c2ccccc2)O1` (stereo partly drawn), the TGI with CCRF-CEM leukemia, in the test on EKVX NSCLC, in the test on HCC-2998 colon, in the test on NCI-H226 lung, with NCI-H522 lung and in the test on OVCAR-3 ovarian was > 100 µM each time. Moreover, the TGI with SK-MEL-5 melanoma and in the test with SNB-19 CNS was > 100 µM in each case.

Take `O=C(C=Nc1ccccc1C(=O)[O-])c1cccs1.O=C(C=Nc1ccccc1C(=O)[O-])c1cccs1.[Zn+2]`: the TGI in the test on ACHN renal was > 100 µM; with CCRF-CEM leukemia, 65.3 µM; in the test with HCC-2998 colon it was > 10 µM; in the test on NCI-H522 lung, 47.9 µM; in the test with OVCAR-3 ovarian it was 29.1 µM; in the test with SNB-19 CNS, > 100 µM.

Consider `CC(C)c1cccc(C(C)C)c1NC(=O)CCC(=O)NN`, for which the TGI in the test on ACHN renal, with CCRF-CEM leukemia, in the test with EKVX NSCLC, in the test on HCC-2998 colon, with NCI-H226 lung and in the test with OVCAR-3 ovarian was > 100 µM in each case. Besides, the TGI in the test with SK-MEL-5 melanoma and in the test on SNB-19 CNS was > 100 µM in each case.

`Nc1nc(=Nc2ccccc2)ss1`: the TGI in the test with ACHN renal, in the test with EKVX NSCLC, with HCC-2998 colon, in the test on NCI-H226 lung, in the test with NCI-H522 lung and in the test on OVCAR-3 ovarian was > 100 µM in each case. The TGI with SK-MEL-5 melanoma and in the test with SNB-19 CNS was > 100 µM in each case.

`FC(F)(F)c1cccc(C2SCc3nc4ccccc4n32)c1` (stereo not drawn): the TGI with ACHN renal, in the test on CCRF-CEM leukemia, in the test with EKVX NSCLC, in the test with HCC-2998 colon, with NCI-H226 lung and with NCI-H522 lung was > 100 µM throughout. The TGI in the test on OVCAR-3 ovarian, in the test with SK-MEL-5 melanoma and in the test with SNB-19 CNS was > 100 µM each time.

With `O=C(Cc1ccccc1)NS(=O)(=O)c1ccccc1`, the TGI in the test with ACHN renal, in the test on CCRF-CEM leukemia, in the test on EKVX NSCLC, in the test with HCC-2998 colon, in the test on NCI-H226 lung and in the test on NCI-H522 lung was > 100 µM each time. Besides, the TGI in the test on OVCAR-3 ovarian and in the test with SNB-19 CNS was > 100 µM throughout.

Regarding `CCOC(=O)c1cc(OC(=O)CC)c2c(OC)ccc(OC)c2c1`, the TGI with ACHN renal, in the test on EKVX NSCLC, in the test with HCC-2998 colon, in the test on NCI-H522 lung, in the test on SK-MEL-5 melanoma and in the test on SNB-19 CNS was > 100 µM each time.

In the case of `COc1ccccc1NC(=O)C(CC(C(=O)Nc1ccccc1OC)/C(C)=N/NC(=O)c1ccccc1O)/C(C)=N/NC(=O)c1ccccc1O` (stereo not drawn), the TGI in the test on ACHN renal, with CCRF-CEM leukemia, in the test on EKVX NSCLC, in the test on HCC-2998 colon, in the test with NCI-H226 lung and with NCI-H522 lung was > 100 µM each time. For the same molecule, the TGI in the test with OVCAR-3 ovarian, with SK-MEL-5 melanoma and with SNB-19 CNS was > 100 µM in each case.

Consider `FC(F)(F)c1nc(-c2ccccc2)oc1Sc1oc(-c2ccccc2)nc1C(F)(F)F`, for which the TGI in the test on ACHN renal, in the test on CCRF-CEM leukemia, with EKVX NSCLC, in the test on HCC-2998 colon, in the test with NCI-H226 lung and in the test on NCI-H522 lung was > 100 µM throughout. Also, the TGI in the test with OVCAR-3 ovarian, in the test on SK-MEL-5 melanoma and in the test with SNB-19 CNS was > 100 µM in each case.

On to `Cc1ccc(N2C(=O)C(Cl)=C(Cl)C2=O)cc1`, for which the TGI in the test with ACHN renal is 34.1 µM; in the test on CCRF-CEM leukemia, 23.4 µM; in the test on EKVX NSCLC it was 39.2 µM; in the test with HCC-2998 colon it was > 100 µM; in the test on NCI-H226 lung, > 100 µM; with NCI-H522 lung it was 28.6 µM. Also, the TGI in the test with OVCAR-3 ovarian was 30.5 µM; with SK-MEL-5 melanoma it was > 100 µM; with SNB-19 CNS, > 100 µM.

`Cn1nc2ccccc2cc1=O`: the TGI in the test with ACHN renal, with CCRF-CEM leukemia, in the test on EKVX NSCLC, in the test on HCC-2998 colon, in the test on NCI-H226 lung and in the test on OVCAR-3 ovarian was > 100 µM in each case. In addition, the TGI with SK-MEL-5 melanoma and in the test on SNB-19 CNS was > 100 µM each time.

Regarding `C[CH2][Sn]([CH2]C)([O]C(=O)c1ccc(F)cc1)[O][Sn]([CH2]C)([CH2]C)[O]C(=O)c1ccc(F)cc1`, the GI50 is 79.8 µM in the test with ACHN renal; 10.7 µM with CCRF-CEM leukemia; > 100 µM with EKVX NSCLC; > 100 µM with HCC-2998 colon; 30.8 µM in the test on NCI-H226 lung; 3.01 µM in the test on NCI-H522 lung. Moreover, the GI50 in the test with OVCAR-3 ovarian, with SK-MEL-5 melanoma and in the test on SNB-19 CNS was > 100 µM in each case. For the same molecule, the TGI was > 100 µM in the test with ACHN renal; 57.6 µM with CCRF-CEM leukemia; > 100 µM in the test on EKVX NSCLC; > 100 µM in the test with HCC-2998 colon; 87.5 µM with NCI-H226 lung; 12.4 µM in the test with NCI-H522 lung. In addition, the TGI in the test on OVCAR-3 ovarian, with SK-MEL-5 melanoma and with SNB-19 CNS was > 100 µM throughout.

The values above are taken from PubChem BioAssay (NCI).
